Here are results for 1 compound from publication PMC4472624, “Pharmacokinetics of daptomycin in patients undergoing low-flow continuous venovenous hemodiafiltration” (Critical Care, 2015).

Data set [1] is described as follows: Pharmacokinetics of daptomycin in patients undergoing low-flow CVVHDF. It counts as in vivo, human. The note with it: 6 mg/kg i.v. every 48 hours, HPLC; for AUC / half-life: 6 mg/kg; for AUC: read-out: area under the concentration-time curve (AUC); for half-life: read-out: elimination half-life (t1/2) (converted). As for the experimental part: DAP (6 mg/kg) was administered intravenously every 48 hours to CVVHDF patients in the ICU. Blood and filtrate samples were collected at 0, 1, 1.5, 2, 5, 12, 24, and 48 hours after infusion. All collected samples were analyzed using HPLC according to the method of Tobin et al.. Maximum concentration (Cmax), elimination half-life (t1/2), area AUC, Cmin, volume of distribution (Vd), clearance (CL), fraction unbound, and sieving coefficient (Sc) were evaluated. Patient characteristics and CVVHDF parameters including blood, dialysate, and filtration flow rates were recorded.

The conditions of data set [2]: cited from earlier work. The text has this:
In Japan, CVVHDF is preferentially performed with lower flow rates. Investigating effects of flow rate on DAP removal during co ...

The mark [3] stands for this setting: low-flow CVVHDF, blood and filtrate samples, mean of three patients.
The mark [4] stands for this setting: human, blood, iv, low-flow CVVHDF, single patient, first listed.
Setting [5] is: human, blood, iv, low-flow CVVHDF, single patient, second listed.
[6] abbreviates: human, blood, iv, low-flow CVVHDF, single patient, third listed.

SMILES strings stand for the structures. Like-named read-outs stand apart in the source and are kept apart here.

The term fraction unbound denotes the share of the substance not bound to proteins or other matrix. Read a low fraction unbound as little free substance. By clearance is commonly meant the rate of elimination divided by the concentration. For orientation: Vd means a proportionality between amount in the body and measured concentration, not a real space.

For `CCCCCCCCCC(=O)N[C@@H](Cc1c[nH]c2ccccc12)C(=O)N[C@H](CC(N)=O)C(=O)N[C@@H](CC(=O)O)C(=O)N[C@@H]1C(=O)NCC(=O)N[C@@H](CCCN)C(=O)N[C@@H](CC(=O)O)C(=O)N[C@H](C)C(=O)N[C@@H](CC(=O)O)C(=O)NCC(=O)N[C@H](CO)C(=O)N[C@@H]([C@H](C)CC(=O)O)C(=O)N[C@@H](CC(=O)c2ccccc2N)C(=O)O[C@@H]1C` [DAP, daptomycin], the “trough serum concentration (Cmin)” value was determined as 2300 ng/mL in data set [1] (low-flow CVVHDF, single patient, first listed); 24700 ng/mL in data set [1] (low-flow CVVHDF, single patient, second listed); 14000 ng/mL in data set [1] (low-flow CVVHDF, single patient, third listed). Also, the CL of dialyzer worked out at 1.20 ± 0.39 mL/min in data set [1] (setting [3]); 1.70 mL/min in data set [1] (low-flow CVVHDF, blood and filtrate samples, single patient, first listed); 0.88 mL/min in data set [1] (low-flow CVVHDF, blood and filtrate samples, single patient, second listed); 0.96 mL/min in data set [1] (low-flow CVVHDF, blood and filtrate samples, single patient, third listed). For the same compound, the “sieving coefficient (Sc)” value in data set [1] (setting [3]) is given as 0.08 ± 0.03. The values for the AUC in data set [1] (setting [4]), in data set [1] (setting [5]) and in data set [1] (setting [6]) were 471 µg·h/mL, 967 µg·h/mL and 1260 µg·h/mL, respectively. The half-life in data set [1] (setting [4]) is 18.6 h; in data set [1] (setting [5]), 11.5 h; in data set [1] (setting [6]), 70.5 h. The free fraction (fraction unbound) in data set [1] (human, blood, iv, ICU patients on low-flow CVVHDF, mean of three patients) was determined as 0.058. For the same compound, the clearance in data set [1] (human, blood, iv, ICU patients on low-flow CVVHDF, mean of three patients, read-out: clearance (CL)) was determined as 9.47 ± 4.56 mL/min. For the same compound, the Vd in data set [1] (human, blood, iv, ICU patients on low-flow CVVHDF, mean of three patients, read-out: volume of distribution (Vd)) came to 26 ± 20.9 L. Also, the Cmax in data set [1] (human, iv, ICU patients on low-flow CVVHDF, blood samples 0-48 hours, mean of three patients, read-out: Maximum concentration (Cmax)) turned out to be 50100 ± 12700 ng/mL. Further, the “AUC/MIC required to obtain clinical success” value in data set [2] is listed as 1,061 mg hour/l.
